In PubChem BioAssay AID1259411 (Chemical Carcinogenesis Research Information System (CCRIS), 2018) one finds carcinogen call data, which are given here for four compounds.

The source made the active and inactive calls. No rule for the calls is given here.

The subject of this data set is rodent carcinogenicity bioassays, tumor incidence. Briefly: CCRIS carcinogenicity studies. The method in brief: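 NCI-built, expert-reviewed records of carcinogenicity and related test outcomes (mutagenicity, tumor promotion/inhibition) compiled from published and report sources, historical span 1985-2011, not updated.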

With `C1CO1`, the carcinogen call runs as follows: (Species: MOUSE, Strain/Sex: B6C3F1/FEMALE, Route: INHALATION, Dose: 0, 50, 100 PPM 6 HR/D 5 D/WK FOR 102 WK (STUDY DURATION: 105 WK), Dose: 0, 50, 100 PPM 6 HR/D 5 D/WK FOR 102 WK (STUDY DURATION: 105 WK), Tumor Site: Type of Lesion: LUNG: ALVEOLAR/BRONCHIOLAR ADENOMA, LUNG: ALVEOLAR/BRONCHIOLAR CARCINOMA, LUNG: ALVEOLAR/BRONCHIOLAR ADENOMA OR CARCINOM, Tumor Site: Type of Lesion: LUNG: ALVEOLAR/BRONCHIOLAR ADENOMA, LUNG: ALVEOLAR/BRONCHIOLAR CARCINOMA, LUNG: ALVEOLAR/BRONCHIOLAR ADENOMA OR CARCINOM) “active; positive”; (Species: MOUSE, Strain/Sex: B6C3F1/MALE, Route: INHALATION, Dose: 0, 50, 100 PPM 6 HR/D 5 D/WK FOR 102 WK (STUDY DURATION: 105 WK), Dose: 0, 50, 100 PPM 6 HR/D 5 D/WK FOR 102 WK (STUDY DURATION: 105 WK), Tumor Site: Type of Lesion: LUNG: ALVEOLAR/BRONCHIOLAR CARCINOMA, LUNG: ALVEOLAR/BRONCHIOLAR ADENOMA OR CARCINOMA, HARDERIAN GLAND: PAPILLARY CYSTAD, Tumor Site: Type of Lesion: LUNG: ALVEOLAR/BRONCHIOLAR CARCINOMA, LUNG: ALVEOLAR/BRONCHIOLAR ADENOMA OR CARCINOMA, HARDERIAN GLAND: PAPILLARY CYSTAD) “active; positive”; (Species: MOUSE, Strain/Sex: NMRI/FEMALE, Route: SUBCUTANEOUS, Dose: 0, 0.1, 0.3, 1 MG/MOUSE IN TRICAPRYLIN 1/WK FOR 95 WK (STUDY DURATION: 110 WK), Dose: 0, 0.1, 0.3, 1 MG/MOUSE IN TRICAPRYLIN 1/WK FOR 95 WK (STUDY DURATION: 110 WK), Tumor Site: Type of Lesion: INJECTION SITE: TUMOR) “active; positive”; (Species: RAT, Strain/Sex: F344/FEMALE, Route: INHALATION, Dose: 0, 10, 33, 100 PPM 6 HR/D 5 D/WK FOR STUDY DURATION (STUDY DURATION: 2 YR), Dose: 0, 10, 33, 100 PPM 6 HR/D 5 D/WK FOR STUDY DURATION (STUDY DURATION: 2 YR), Tumor Site: Type of Lesion: BRAIN: ASTROCYTOMA, MIXED GLIOMA, OLIGODENDROGLIOMA, MALIGNANT RETICULOSIS) “active; positive”; (Species: RAT, Strain/Sex: F344/FEMALE, Route: INHALATION, Dose: 0, 10, 33, 100 PPM 6 HR/D 5 D/WK FOR UP TO 2 YR (STUDY DURATION: 24 MO), Dose: 0, 10, 33, 100 PPM 6 HR/D 5 D/WK FOR UP TO 2 YR (STUDY DURATION: 24 MO)) “inactive; negative”; (Species: RAT, Strain/Sex: F344/MALE, Route: INHALATION, Dose: 0, 10, 33, 100 PPM 6 HR/D 5 D/WK FOR STUDY DURATION (STUDY DURATION: 2 YR), Dose: 0, 10, 33, 100 PPM 6 HR/D 5 D/WK FOR STUDY DURATION (STUDY DURATION: 2 YR), Tumor Site: Type of Lesion: BRAIN: GRANULAR CELL TUMOR, ASTROCYTOMA, MIXED GLIOMA, OLIGODENDROGLIOMA, MALIGNANT RETICULOSIS) “active; positive”. Further, the carcinogen call runs as follows: (Species: RAT, Strain/Sex: F344/MALE, Route: INHALATION, Dose: 0, 10, 33, 100 PPM 6 HR/D 5 D/WK FOR UP TO 2 YR (STUDY DURATION: 24 MO), Dose: 0, 10, 33, 100 PPM 6 HR/D 5 D/WK FOR UP TO 2 YR (STUDY DURATION: 24 MO), Tumor Site: Type of Lesion: BRAIN: GRANULAR CELL TUMOR OR GLIAL CELL TUMOR OR ASTROCYTOMA OR MALIGNANT RETICULOSIS) “active; positive”; (Species: RAT, Strain/Sex: F344/MALE, Route: INHALATION, Dose: 0, 50, 100 PPM 7 HR/D 5 D/WK FOR 24 MO (STUDY DURATION: LIFETIME), Dose: 0, 50, 100 PPM 7 HR/D 5 D/WK FOR 24 MO (STUDY DURATION: LIFETIME), Tumor Site: Type of Lesion: HEMATOPOIETIC SYSTEM: MONONUCLEAR CELL LEUKEMIA, PERITONEUM: MESOTHELIOMA, BRAIN: GLIOMA, Tumor Site: Type of Lesion: HEMATOPOIETIC SYSTEM: MONONUCLEAR CELL LEUKEMIA, PERITONEUM: MESOTHELIOMA, BRAIN: GLIOMA) “active; positive”; (Species: RAT, Strain/Sex: F344/MALE, Route: INHALATION, Dose: 0, 50, 100 PPM 7 HR/D 5 D/WK FOR 104 WK (STUDY DURATION: 2 YR), Dose: 0, 50, 100 PPM 7 HR/D 5 D/WK FOR 104 WK (STUDY DURATION: 2 YR), Tumor Site: Type of Lesion: BRAIN: GLIOMA (MIXED CELL), PERITONEUM: MESOTHELIOMA, PITUITARY GLAND: ADENOMA, SPLEEN: MONONUCLEAR CELL LEUKEMIA, Tumor Site: Type of Lesion: BRAIN: GLIOMA (MIXED CELL), PERITONEUM: MESOTHELIOMA, PITUITARY GLAND: ADENOMA, SPLEEN: MONONUCLEAR CELL LEUKEMIA) “active; positive”; (Species: RAT, Strain/Sex: SPRAGUE-DAWLEY/FEMALE, Route: GAVAGE, Dose: 7.5, 30 MG/KG IN SALAD OIL 2/WK FOR UP TO 150 WK, Tumor Site: Type of Lesion: FORESTOMACH: SQUAMOUS CELL CARCINOMA) “active; positive”.
As for `O=C(Cn1ccnc1[N+](=O)[O-])NCc1ccccc1`, the carcinogen call by setting is: (Species: MOUSE, Strain/Sex: SWISS/FEMALE, Route: INTRAPERITONEAL, Dose: 0, 8 UG/G BW 1/D FOR 30 DAYS (STUDY DURATION: LIFETIME), Tumor Site: Type of Lesion: LYMPHATIC SYSTEM: LYMPHOMA) “active; positive”; (Species: MOUSE, Strain/Sex: SWISS/FEMALE, Route: INTRAPERITONEAL, Dose: 0, 8 UG/G BW 1/D FOR 60 DAYS (STUDY DURATION: LIFETIME), Tumor Site: Type of Lesion: LYMPHATIC SYSTEM: LYMPHOMA) “active; positive”.
Consider `CC(=O)Nc1nc(-c2ccc([N+](=O)[O-])o2)cs1`, for which the carcinogen call runs as follows: (Species: HAMSTER, Route: ORAL, Tumor Site: Type of Lesion: FORESTOMACH, URINARY BLADDER) “active; positive”; (Species: MOUSE, Route: ORAL, Tumor Site: Type of Lesion: FORESTOMACH, HEMATOPOIETIC SYSTEM (LEUKEMIA), LYMPHATIC SYSTEM: LYMPHATIC LEUKEMIA, Tumor Site: Type of Lesion: FORESTOMACH, HEMATOPOIETIC SYSTEM (LEUKEMIA), LYMPHATIC SYSTEM: LYMPHATIC LEUKEMIA) “active; positive”; (Species: RAT, Route: ORAL, Tumor Site: Type of Lesion: MAMMARY GLAND, LUNG, SALIVARY GLAND, Tumor Site: Type of Lesion: MAMMARY GLAND, LUNG, SALIVARY GLAND) “active; positive”.
For the compound `c1ccncc1`, the carcinogen call is “active; positive” (Species: MOUSE, Strain/Sex: B6C3F1/FEMALE, Route: ORAL, Dose: 0, 125, 250, 500 PPM IN DRINKING WATER FOR 105 WK (STUDY DURATION: 105 WK), Dose: 0, 125, 250, 500 PPM IN DRINKING WATER FOR 105 WK (STUDY DURATION: 105 WK), Tumor Site: Type of Lesion: LIVER: HEPATOCELLULAR ADENOMA, HEPATOCELLULAR CARCINOMA, OR HEPATOBLASTOMA); “active; positive” (Species: MOUSE, Strain/Sex: B6C3F1/MALE, Route: ORAL, Dose: 0, 250, 500, 1000 PPM IN DRINKING WATER FOR 104 WK (STUDY DURATION: 104 WK), Dose: 0, 250, 500, 1000 PPM IN DRINKING WATER FOR 104 WK (STUDY DURATION: 104 WK), Tumor Site: Type of Lesion: LIVER: HEPATOCELLULAR ADENOMA, HEPATOCELLULAR CARCINOMA, OR HEPATOBLASTOMA); “equivocal” (Species: RAT, Strain/Sex: F344/FEMALE, Route: ORAL, Dose: 0, 100, 200, 400 PPM IN DRINKING WATER FOR 105 WK (STUDY DURATION: 105 WK), Dose: 0, 100, 200, 400 PPM IN DRINKING WATER FOR 105 WK (STUDY DURATION: 105 WK), Tumor Site: Type of Lesion: MULTIPLE ORGANS: MONONUCLEAR CELL LEUKEMIA); “active; positive” (Species: RAT, Strain/Sex: F344/MALE, Route: ORAL, Dose: 0, 100, 200, 400 PPM IN DRINKING WATER FOR 104 WK (STUDY DURATION: 104 WK), Dose: 0, 100, 200, 400 PPM IN DRINKING WATER FOR 104 WK (STUDY DURATION: 104 WK), Tumor Site: Type of Lesion: KIDNEY: RENAL TUBULE ADENOMA, RENAL TUBULE ADENOMA OR CARCINOMA); “equivocal” (Species: RAT, Strain/Sex: WISTAR/MALE, Route: ORAL, Dose: 0, 100, 200, 400 PPM IN DRINKING WATER FOR 104 WK (STUDY DURATION: 104 WK), Dose: 0, 100, 200, 400 PPM IN DRINKING WATER FOR 104 WK (STUDY DURATION: 104 WK), Tumor Site: Type of Lesion: TESTIS: INTERSTITIAL CELL ADENOMA).
